ChEMBL document CHEMBL1201862, “PubChem BioAssay data set” (2004)
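Cultured in 96-well plates, cells were exposed to test compound for 48 hours across five concentrations. GI50 = concentration required for 50% inhibition of growth.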 Activity calls are given as the source filed them. Rule as the data show it: active = GI50 up to about 1.1 µM and inactive = higher.

What was measured:
Test in all cases: NCI tumour cell line growth inhibition, 48 h
A549 = test system: A549
COLO 205 = test system: COLO 205
EKVX = test system: EKVX
IGROV-1 = test system: IGROV-1
LOX IMVI = test system: LOX IMVI
M14 = test system: M14
NCI-H226 = test system: NCI-H226
NCI-H522 = test system: NCI-H522
RXF 393 = test system: RXF 393
SF-539 = test system: SF-539
SK-MEL-28 = test system: SK-MEL-28
SK-MEL-2 = test system: SK-MEL-2
SK-MEL-5 = test system: SK-MEL-5
SK-OV-3 = test system: SK-OV-3
SNB-75 = test system: SNB-75
SW-620 = test system: SW-620
U-251 = test system: U-251
UACC-257 = test system: UACC-257
HCT-116 = test system: HCT-116
OVCAR-3 = test system: OVCAR-3

Measured: GI50

C=Cc1cc2c(cc1O)CC[C@@H]1[C@@H]2CC[C@]2(C)[C@@H](O)CC[C@@H]12
inactive: A549 5.78 µM | COLO 205 15.4 µM | EKVX 7.38 µM | IGROV-1 8.09 µM | LOX IMVI 8.63 µM | M14 5.4 µM | NCI-H226 12.4 µM | NCI-H522 4.66 µM | RXF 393 2.56 µM | SF-539 2.06 µM | SK-MEL-28 4.06 µM | SK-MEL-2 5.78 µM | SK-MEL-5 4.39 µM | SK-OV-3 5.79 µM | SNB-75 5.38 µM | SW-620 4.32 µM | U-251 4.19 µM | UACC-257 4.15 µM

CN1C(=O)CN2C(Cl)(Cl)C2(c2ccccc2)c2cc(Cl)ccc21 (centres undefined)
inactive: COLO 205 > 100 µM | EKVX 65.8 µM | HCT-116 65.3 µM | IGROV-1 > 100 µM | LOX IMVI > 100 µM | M14 > 100 µM | NCI-H226 > 100 µM | NCI-H522 31.3 µM | OVCAR-3 > 100 µM | RXF 393 > 100 µM | SK-MEL-28 > 100 µM | SK-MEL-2 > 100 µM | SK-MEL-5 > 100 µM | SK-OV-3 > 100 µM | SW-620 > 100 µM | U-251 > 100 µM | UACC-257 55.1 µM

Cc1c(N2C(=O)CS(=O)(=O)C2c2cccc(Oc3ccccc3)c2)c(=O)n(-c2ccccc2)n1C (centres undefined)
inactive: A549 71.8 µM | COLO 205 28 µM | EKVX 46.7 µM | HCT-116 26.7 µM | IGROV-1 46.9 µM | LOX IMVI 47.6 µM | M14 23.7 µM | NCI-H226 42.6 µM | NCI-H522 26.1 µM | OVCAR-3 26.8 µM | RXF 393 21.6 µM | SF-539 > 100 µM | SK-MEL-28 > 100 µM | SK-MEL-2 72.9 µM | SK-MEL-5 35.6 µM | SK-OV-3 61.8 µM | SW-620 > 100 µM | U-251 > 100 µM | UACC-257 > 100 µM

CC(=O)OCC1OC(n2cc(F)c(=O)[nH]c2=O)C(N)C(OC(C)=O)C1OC(C)=O (centres undefined)
inactive: A549 > 100 µM | COLO 205 > 100 µM | EKVX > 100 µM | HCT-116 > 100 µM | IGROV-1 > 100 µM | LOX IMVI > 100 µM | NCI-H226 > 100 µM | NCI-H522 > 100 µM | OVCAR-3 > 100 µM | RXF 393 > 100 µM | SF-539 > 100 µM | SK-MEL-2 > 100 µM | SK-MEL-5 > 100 µM | SK-OV-3 > 100 µM | SNB-75 > 100 µM | SW-620 > 100 µM | U-251 > 100 µM | UACC-257 > 100 µM

O=c1cnn(CCOCP(=O)(O)O)c(=O)[nH]1
inactive: A549 > 100 µM | COLO 205 > 100 µM | EKVX > 100 µM | IGROV-1 > 100 µM | LOX IMVI > 100 µM | M14 > 100 µM | NCI-H226 > 100 µM | NCI-H522 > 100 µM | OVCAR-3 > 100 µM | RXF 393 > 100 µM | SF-539 > 100 µM | SK-MEL-28 > 100 µM | SK-MEL-2 > 100 µM | SK-MEL-5 > 100 µM | SNB-75 > 100 µM | SW-620 > 100 µM | U-251 > 100 µM | UACC-257 > 100 µM

O=C1CSc2sc(=S)sc2S1
inactive: A549 50.8 µM | COLO 205 > 100 µM | EKVX > 100 µM | HCT-116 > 100 µM | IGROV-1 > 100 µM | LOX IMVI 61.1 µM | NCI-H226 > 100 µM | NCI-H522 > 61.7 µM | OVCAR-3 > 100 µM | RXF 393 43.1 µM | SF-539 > 100 µM | SK-MEL-28 > 100 µM | SK-MEL-2 > 82.4 µM | SK-MEL-5 > 100 µM | SK-OV-3 > 75.3 µM | SNB-75 > 100 µM | SW-620 > 100 µM | U-251 > 100 µM | UACC-257 > 100 µM
